This passage reports ΔTi results from article PMC11393339, “Structure and mechanism of a phosphotransferase system glucose transporter” (Nature Communications, 2024).

Assay [1] addresses T1, IICB^Glc (Escherichia coli, UniProt P69786).
T1 construct: gene ptsG; full-length wild type with decahistidine tag; overexpressed in E. coli BW25113 delta-arcB delta-ptsG; homodimer; purified in DDM (nanoDSF) or in MSP1E3D1/POPC nanodiscs (cryo-EM, IIB domain not resolved)
Nature of the assay: nanoDSF thermal shift (Tycho NT.[…]). Type of assay: binding. To be noted: 10 mM ligand, 4 µM protein, 20 mM HEPES-NaOH pH 8.0, 150 mM NaCl, 5 mM β-ME, 0.02% DDM. (In general: In DSF a fluorescence change marks the thermal transition of the protein.)

The target of assay [2] is T1, IICB^Glc. The assay can be described thus: nanoDSF thermal shift (Tycho NT.[…]). To be noted: 10 mM ligand, 4 µM protein, 20 mM HEPES-NaOH pH 8.0, 150 mM NaCl, 5 mM β-ME, 0.02% DDM. Type of assay: binding. This is another data set of the same source.

T1 sequence (P69786 whole entry, the tested form may be a part): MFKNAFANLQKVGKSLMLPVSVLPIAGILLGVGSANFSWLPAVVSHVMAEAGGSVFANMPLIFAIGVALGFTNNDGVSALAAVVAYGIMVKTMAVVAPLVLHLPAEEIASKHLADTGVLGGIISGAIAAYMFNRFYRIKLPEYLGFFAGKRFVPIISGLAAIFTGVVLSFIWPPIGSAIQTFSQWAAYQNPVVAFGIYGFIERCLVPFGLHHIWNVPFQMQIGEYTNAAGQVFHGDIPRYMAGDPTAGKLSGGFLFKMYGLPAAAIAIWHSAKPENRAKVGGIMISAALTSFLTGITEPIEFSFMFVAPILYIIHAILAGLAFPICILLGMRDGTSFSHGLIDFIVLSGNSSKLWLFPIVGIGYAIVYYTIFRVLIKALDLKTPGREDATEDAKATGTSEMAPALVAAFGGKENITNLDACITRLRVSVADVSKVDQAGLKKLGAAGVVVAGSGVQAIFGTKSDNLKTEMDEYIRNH

With `COC1O[C@H](CO)[C@@H](O)[C@H](O)[C@H]1O` (stereo partly shown) [1-O-methyl-glucose], the ΔTi in assay [1] is 1-deoxy-glucose and 1-O-methyl-glucose bound best.

As for `OC[C@H]1OC[C@H](O)[C@@H](O)[C@@H]1O` [1-deoxy-glucose], the ΔTi in assay [1] is 1-deoxy-glucose and 1-O-methyl-glucose bound best. Consider `OC[C@H]1OC(O)[C@H](O)[C@@H](O)[C@@H]1O` (stereo partly drawn) [D-glucose], for which, in assay [2], the ΔTi result is “~ almost 10 °C”. Regarding `OC[C@H]1O[C@H](O[C@H]2[C@H](O)[C@@H](O)C(O)O[C@@H]2CO)[C@H](O)[C@@H](O)[C@@H]1O` (stereo partly drawn) [D-maltose], in assay [1], the ΔTi entry is given as “induced a slight stabilization of IICB^Glc”.
